Measurements reported in patent publication US20110086759A1, “CHEMICAL COMPOUNDS” (SYNGENTA CROP PROTECTION, INC., priority 2007, published 2011).

Tests used:
Assay type in all cases: in vivo
[1] = test system: Alopecurus myosuroides (ALOMY); assay: Post-emergence biological efficacy, glasshouse pot test; details: 312 h, Rate 1,000 g/ha, post-emergence spray, evaluated after 13 days (100=total damage to plant; 0=no damage to plant), read-out: Percentage damage caused to weed species, post-emergence, ALOMY
Summary of the method: (§1)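 Scored 13 days after spraying on a 0 (no damage) to 100 (total damage) scale. Treatment was a post-emergence spray at 1000 or 250 g/ha, from acetone/water 50:50 plus 0.5% Tween 20, onto 8-day-old plants in soil pots. Growth at 24/16° C, 14 h photoperiod, 65% humidity, watered twice daily.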

Setaria faberi (SETFA) [2] = assay: as above; details: 312 h, Rate 1,000 g/ha, post-emergence spray, evaluated after 13 days (100=total damage to plant; 0=no damage to plant), read-out: Percentage damage caused to weed species, post-emergence, SETFA
Summary of the method: as §1

[3] = test system: Ipomea hederaceae (IPOHE); assay: as above; details: Ipomoea hederacea, 312 h; Rate 1,000 g/ha; post-emergence spray; evaluated after 13 days (100=total damage to plant; 0=no damage to plant); read-out: Percentage damage caused to weed species, post-emergence, IPOHE
Summary of the method: as §1

[4] = test system: Echinochloa crus-galli (ECHCG); assay: as above; details: 312 h, Rate 1,000 g/ha, post-emergence spray, evaluated after 13 days (100=total damage to plant; 0=no damage to plant), read-out: Percentage damage caused to weed species, post-emergence, ECHCG
Summary of the method: as §1

Solanum nigrum (SOLNI) [5] = assay: as above; details: 312 h, Rate 1,000 g/ha, post-emergence spray, evaluated after 13 days (100=total damage to plant; 0=no damage to plant), read-out: Percentage damage caused to weed species, post-emergence, SOLNI
Summary of the method: as §1

[6] = test system: Amaranthus retoflexus (AMARE); assay: as above; details: Amaranthus retroflexus, 312 h; Rate 1,000 g/ha; post-emergence spray; evaluated after 13 days (100=total damage to plant; 0=no damage to plant); read-out: Percentage damage caused to weed species, post-emergence, AMARE
Summary of the method: as §1

[7] = test system: Alopecurus myosuroides (ALOMY); assay: Pre-emergence biological efficacy, glasshouse pot test; details: 312 h, pre-emergence, rate 1,000 g/ha, evaluated after 13 days (100=total damage to plant; 0=no damage), read-out: Percentage damage caused to weed species, ALOMY
Summary of the method: (§2)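 Damage was rated on a 0–100 scale 13 days after treatment, with plants kept at 24/16° C, 14 h light and 65% humidity. The pre-emergence spray, at 1000 or 250 g/ha in acetone/water 50:50 with 0.5% Tween 20, was applied one day after sowing.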

Setaria faberi (SETFA) [8] = assay: as above; details: 312 h, pre-emergence, rate 1,000 g/ha, evaluated after 13 days (100=total damage to plant; 0=no damage), read-out: Percentage damage caused to weed species, SETFA
Summary of the method: as §2

[9] = test system: Ipomea hederaceae (IPOHE); assay: as above; details: Ipomoea hederacea, 312 h; pre-emergence, rate 1,000 g/ha, evaluated after 13 days (100=total damage to plant; 0=no damage); read-out: Percentage damage caused to weed species, IPOHE
Summary of the method: as §2

[10] = test system: Echinochloa crus-galli (ECHCG); assay: as above; details: 312 h, pre-emergence, rate 1,000 g/ha, evaluated after 13 days (100=total damage to plant; 0=no damage), read-out: Percentage damage caused to weed species, ECHCG
Summary of the method: as §2

Solanum nigrum (SOLNI) [11] = assay: as above; details: 312 h, pre-emergence, rate 1,000 g/ha, evaluated after 13 days (100=total damage to plant; 0=no damage), read-out: Percentage damage caused to weed species, SOLNI
Summary of the method: as §2

[12] = test system: Amaranthus retoflexus (AMARE); assay: as above; details: Amaranthus retroflexus, 312 h; pre-emergence, rate 1,000 g/ha, evaluated after 13 days (100=total damage to plant; 0=no damage); read-out: Percentage damage caused to weed species, AMARE
Summary of the method: as §2

Row | SMILES | pest or weed control at 1000 g/ha [1] | pest or weed control at 1000 g/ha (Setaria faberi (SETFA) [2]) | pest or weed control at 1000 g/ha [3] | pest or weed control at 1000 g/ha [4] | pest or weed control at 1000 g/ha (Solanum nigrum (SOLNI) [5]) | pest or weed control at 1000 g/ha [6] | pest or weed control at 1000 g/ha [7] | pest or weed control at 1000 g/ha (Setaria faberi (SETFA) [8]) | pest or weed control at 1000 g/ha [9] | pest or weed control at 1000 g/ha [10] | pest or weed control at 1000 g/ha (Solanum nigrum (SOLNI) [11]) | pest or weed control at 1000 g/ha [12]
1 | COC(=O)c1nc(C2CC2)nc(N(C)Cc2cccc(F)c2)c1Cl [Compound 5-65, 5-Chloro-2-cyclopropyl-4-[N-(3-fluorophenylmethyl)-N-methyl-amino]-6-methoxy-carbonylpyrimidine] | 30% | 80% | 90% | 70% | 100% | 100% | 20% | 20% | 100% | 10% | 90% | 100%
2 | COC(=O)c1nc(C2CC2)nc(N(C)Cc2ccc(F)cc2)c1Cl [Compound 5-66, 5-Chloro-2-cyclopropyl-4-[N-(4-fluorophenylmethyl)-N-methyl-amino]-6-methoxy-carbonylpyrimidine] | 20% | 80% | 100% | 40% | 90% | 100% | 30% | 60% | 70% | 40% | 60% | 100%
3 | COC(=O)c1nc(C2CC2)nc(N(C)Cc2ccc(Br)cc2)c1Cl [Compound 5-69, 4-[N-(4-Bromo-phenylmethyl)-N-methyl-amino]-5-chloro-2-cyclo-propyl-6-methoxy-carbonylpyrimidine] | 30% | 70% | 80% | 50% | 80% | 100% | 10% | 0% | 50% | 10% | 20% | 70%
4 | COC(=O)c1nc(C2CC2)nc(N(C)Cc2ccc(C)cc2)c1Cl [Compound 5-73, 5-Chloro-2-cyclopropyl-6-methoxycarbonyl-4-[N-methyl-N-(4-methylphenyl)-methylamino]-pyrimidine] | 10% | 50% | 100% | 10% | 70% | 100% | 0% | 0% | 30% | 0% | 20% | 80%
5 | COC(=O)c1nc(C2CC2)nc(N(C)Cc2cccc(C(F)(F)F)c2)c1Cl [Compound 5-76, 5-Chloro-2-cyclopropyl-6-methoxycarbonyl-4-[N-methyl-N-(3-trifluoromethyl-phenylmethyl)-amino]pyrimidine] | 40% | 80% | 90% | 50% | 90% | 100% | 10% | 30% | 60% | 20% | 40% | 80%
